Measurements: patent US12410148B2, “Antibody drug conjugates” (Pharma Mar, S.A., priority 2013, dated 2025)
Values after ≈ are worked out from the molar mass of the structure shown. Values joined by “and” are separate entries in the source; they are usually repeats but may differ in a detail not shown here. Equal entries are not always repeated. Where two headings read alike, the source gives them in different places.

Tests used:
[1] = tested on: NB4, U937, Raji and RPMI-8226 cells; assay: In vitro cytotoxicity, whole CD13 cell panel; conditions: for IC50: Homo sapiens
Excerpt: (§1) All tumor cell lines used in this study were obtained from the American Type Culture Collection (ATCC), unless otherwise indicated; BT-474 (ATCC HTB-20, Breast Ductal Carcinoma), SK-BR-3 (ATCC HTB-30, Breast Adenocarcinoma) and HCC-1954 (ATCC CRL-2338, Breast Ductal Carcinoma), all HER2+; MDA-MB-231 (ATCC HTB-26, Breast Adenocarcinoma) and MCF-7 (ATCC HTB-22 Breast Adenocarcinoma, pleural effusion), all HER2-; SK-OV-3 (ATCC HTB-77, Ovary Adenocarcinoma), HER2+; NB-4 (Acute Promyelocytic Leukemia, APL, CD13+, M. Lanotte et al. (1991) NB4, a maturation inducible cell line with t(15;17) marker isolated from a human acute promyelocytic leukemia (M3). Blood 77, 1080-1086), (CD13+) and U937 (ATCC CRL-1 593.2, Histiocytic Lymphoma, CD13+ and CD4+); Raji (ATCC CCL-86, Burkitt's Lymphoma) (CD13−, CD20+, CD5−, and CD4−); RPMI-8226 (ATCC CRM-CCL-155, Multiple Myeloma) (CD13−, CD20−, CD5− and CD4−); Karpas-299 (DSMZ ACC-31, Non-Hodgkin's Lymphoma) (CD20−, CD5+, and CD4+); MOLT-4 (ATCC CRL-1 582, Acute Lymphoblastic Leukemia, CD5+). In addition, the two Raji cell (ATCC CCL-86, Burkitt's Lymphoma) clones used in this study Raji-clone #10 (high CD5 expression) and Raji-clone18 (null CD5 expression), were provided by Dr. Juan M. Zapata (Instituto de Investigaciones Biomedicas “Alberto Sols”, CSIC-UAM, Madrid, Spain). Cells were maintained at 37° C., 5% CO 2 and 95% humidity in Dulbecco's Modified Eagle's Medium (DMEM) (for MCF and MDA-MB-231 cells), RPMI-1640 (for SK-BR-3, HCC-1954, NB-4, U937, Raji, RPMI-8226, Karpas-299, MOLT-4, Raji-clone #10 and Raji-clone #18 cells), RPMI-1640+1% ITS (for BT-474 cells) or McCOyS (for SK-OV-3 cells), all media supplemented with 10% Fetal Calf Serum (FCS) and 100 units/mL penicillin and streptomycin.
(§2) For suspension cells: A standard metabolic assay using MTT (3-(4,5-Dimethylthiazol-2-yl)-2,5-diphenyltetrazolium bromide) was adapted for quantitative measurement of cell growth and cytotoxicity, as described in T. Mosmann (1983) Rapid colorimetric assay for cellular growth and survival: Application to proliferation and cytotoxicity assays. J. Immunol. Meth., 65, 55-63. Briefly, MTT solution was added to the cell cultures at a final concentration of 0.5 mg/mL, and incubated for 1 to 4 hours at 37° C. until formazan crystals are formed. Culture medium is carefully removed from the cell cultures and formazan crystals resuspended in 100 μl DMSO. After mixing to assure solubilization, the quantity of formazan (presumably directly proportional to the number of viable cells) is measured by recording changes in absorbance at 570 nm using a plate reading spectrophotometer. Cell survival was expressed as percentage of control, untreated cell survival.
(§3) The IC50 value refers to the concentration of compound inducing a 50% of cell death as compared to the control cell survival.
The in vitro cytotoxic activity of ADC9 along with the parent cytotoxic Compounds 1 and 4, was evaluated against different human tumor cell lines expressing or not the CD13 receptor, including NB4 and U937 (CD13 positive cells) and Raji and RPMI-8226 (CD13 negative cells). Standard dose-response (DR) curves for 72 hours were performed.

[2] = tested on: SK-BR-3 cells; assay: In vitro cytotoxicity, SRB assay, 72 h dose-response; type: cell-based; conditions: Homo sapiens, SK-BR-3, 72 h, HER2+; 72 h; read-out: IC50
Excerpt: All tumor cell lines used in this study were obtained from the American Type Culture Collection (ATCC), unless otherwise indicated; BT-474 (ATCC HTB-20, Breast Ductal Carcinoma), SK-BR-3 (ATCC HTB-30, Breast Adenocarcinoma) and HCC-1954 (ATCC CRL-2338, Breast Ductal Carcinoma), all HER2+; MDA-MB-231 (ATCC HTB-26, Breast Adenocarcinoma) and MCF-7 (ATCC HTB-22 Breast Adenocarcinoma, pleural effusion), all HER2-; SK-OV-3 (ATCC HTB-77, Ovary Adenocarcinoma), HER2+; NB-4 (Acute Promyelocytic Leukemia, APL, CD13+, M. Lanotte et al. (1991) NB4, a maturation inducible cell line with t(15;17) marker isolated from a human acute promyelocytic leukemia (M3). […] Cells were maintained at 37° C., 5% CO 2 and 95% humidity in Dulbecco's Modified Eagle's Medium (DMEM) (for MCF and MDA-MB-231 cells), RPMI-1640 (for SK-BR-3, HCC-1954, NB-4, U937, Raji, RPMI-8226, Karpas-299, MOLT-4, Raji-clone #10 and Raji-clone #18 cells), RPMI-1640+1% ITS (for BT-474 cells) or McCOyS (for SK-OV-3 cells), all media supplemented with 10% Fetal Calf Serum (FCS) and 100 units/mL penicillin and streptomycin.
For adherent cells: A colorimetric assay using sulforhodamine B (SRB) was adapted for quantitative measurement of cell growth and cytotoxicity, as described in V. Vichai and K. Kirtikara (2006) Sulforhodamine B colorimetric assay for cytotoxicity screening. […] Briefly, cells were seeded in 96-well microtiter plates and allowed to stand for 24 hours in drug-free medium before treatment with vehicle alone or the indicated compounds for 72 hours. For quantification, cells were washed twice with phosphate buffered saline (PBS), fixed for 15 min in 1% glutaraldehyde solution, rinsed twice with PBS, stained in 0.4% SRB-1% acetic acid solution for 30 min, rinsed several times with 1% acetic acid solution and air-dried. SRB was then extracted in 10 mM trizma base solution and the optical density measured at 490 nm in a microplate spectrophotometer. Cell survival was expressed as percentage of control, untreated cell survival.

[3] = tested on: U937 cells; assay: In vitro cytotoxicity, MTT assay, 72 h dose-response; type: cell-based, human; conditions: Homo sapiens, U-937, 72 h, CD13+, CD4+, read-out: IC50
Description: (§5) Briefly, MTT solution was added to the cell cultures at a final concentration of 0.5 mg/mL, and incubated for 1 to 4 hours at 37° C. until formazan crystals are formed. Culture medium is carefully removed from the cell cultures and formazan crystals resuspended in 100 μl DMSO. […] Cell survival was expressed as percentage of control, untreated cell survival.

[4] = tested on: RPMI-8226 cells; assay: as above; type: cell-based, human; conditions: Homo sapiens, RPMI-8226, 72 h, CD13−, CD20−, CD5−, CD4−, read-out: IC50
Description: as §5

[5] = tested on: HCC-1954, SK-BR-3, MDA-MB-231 and MCF-7 cells; assay: In vitro cytotoxicity, whole breast cancer cell panel; conditions: for IC50: Homo sapiens
Excerpt: as §1
For adherent cells: A colorimetric assay using sulforhodamine B (SRB) was adapted for quantitative measurement of cell growth and cytotoxicity, as described in V. Vichai and K. Kirtikara (2006) Sulforhodamine B colorimetric assay for cytotoxicity screening. Nature Protocols, 1, 1112-1 116. Briefly, cells were seeded in 96-well microtiter plates and allowed to stand for 24 hours in drug-free medium before treatment with vehicle alone or the indicated compounds for 72 hours. For quantification, cells were washed twice with phosphate buffered saline (PBS), fixed for 15 min in 1% glutaraldehyde solution, rinsed twice with PBS, stained in 0.4% SRB-1% acetic acid solution for 30 min, rinsed several times with 1% acetic acid solution and air-dried. SRB was then extracted in 10 mM trizma base solution and the optical density measured at 490 nm in a microplate spectrophotometer. Cell survival was expressed as percentage of control, untreated cell survival.
as §3
Standard dose-response (DR) curves for 72 hours were performed.

[6] = tested on: NB-4 cells; assay: In vitro cytotoxicity, MTT assay, 72 h dose-response; type: cell-based; conditions: Homo sapiens, CD13+
Description: as §5

[7] = tested on: Raji cells; assay: as above; type: cell-based, human; conditions: Homo sapiens, Raji, CD13−, CD20+, CD5−, CD4−, read-out: IC50
Description: as §5

[8] = tested on: MDA-MB-231 cells; assay: In vitro cytotoxicity, SRB assay, 72 h dose-response; type: cell-based; conditions: Homo sapiens, MDA-MB-231, 72 h, HER2−; 72 h; read-out: IC50
Excerpt: (§4) Nature Protocols, 1, 1112-1 116.

[9] = tested on: MCF-7 cells; assay: as above; type: cell-based; conditions: Homo sapiens, MCF7, 72 h, HER2−; 72 h; read-out: IC50
Excerpt: as §4

[10] = tested on: HCC-1954 cells; assay: as above; type: cell-based; conditions: Homo sapiens, HCC1954, 72 h, HER2+; 72 h; read-out: IC50
Excerpt: as §4

[11] = tested on: Raji-clone #10 (high CD5 expression); assay: In vitro cytotoxicity, MTT assay, 72 h dose-response; type: cell-based; conditions: Homo sapiens
Description: as §5

[12] = tested on: Karpas-299, U937, Raji and RPMI-8226 cells; assay: In vitro cytotoxicity, whole CD4 cell panel; conditions: for IC50: Homo sapiens
Excerpt: as §1, §2, §3
The in vitro cytotoxic activity of ADC16 along with the parent cytotoxic Compounds 1, 4, and 40, was evaluated against different human cancer cell lines expressing or not the CD4 antigen, including Karpas-299 and U937 (both CD4+); Raji and RPMI-8226 (both CD4−). Standard dose-response (DR) curves for 72 hours were performed.

[13] = tested on: Raji, RPMI-8226 and Karpas-299 cells; assay: In vitro cytotoxicity, whole CD20 cell panel; conditions: Homo sapiens
Excerpt: as §1, §2, §3
The in vitro cytotoxic activity of ADC12 along with the parent cytotoxic Compounds 1, 4, and 40, was evaluated was assayed against different human cancer cell lines expressing or not the CD20 antigen, including Raji (CD20 positive cells); RPMI-8226 and Karpas-299 (CD20 negative cells). Standard dose-response (DR) curves for 72 hours were performed.

[14] = tested on: Raji-clone #18 (null CD5 expression); assay: In vitro cytotoxicity, MTT assay, 72 h dose-response; type: cell-based; conditions: Homo sapiens, C#18 (null CD5)
Description: as §5

[15] = read-out: IC50 values across the different cell lines tested (range)
[16] = read-out: mean IC50 value across the whole cell panel
[17] = read-out: IC50 values along the different cell lines tested (range), four breast cell lines
[18] = read-out: mean IC50 value across the whole cell panel, four breast cell lines
[19] = long maleimide containing linker

| Structure (SMILES) | IC50 [1, 15] | IC50 [1, 16] | IC50 [2] | IC50 [5, 17] | IC50 [5, 18] | IC50 [6] | IC50 [8] | IC50 [9] | IC50 [10] | other results |
| --- | --- | --- | --- | --- | --- | --- | --- | --- | --- | --- |
| COC1=CC[C@@H]([C@@H](C)/C=C(C)/C=C\C=C/C(=O)N[C@H](C(=O)N/C=C\C[C@H](C/C=C(\C)Cl)OC(=O)NCCCNC(=O)CCS)C(C)(C)C)OC1=O [Compound 13] | 0.0017 µg/mL to 0.01 µg/mL and 2.7 nM to 14 nM | 0.0043 µg/mL and 5.7 nM | 0.000795 µg/mL and 1.06 nM | 0.795 to 2.63 ng/mL (≈ 1.06 to 3.5 nM) | 0.00183 µg/mL and 2.44 nM | 0.0017 µg/mL and 2.26 nM | 0.00263 µg/mL and 3.5 nM | 0.00243 µg/mL and 3.23 nM | 0.00149 µg/mL and 1.98 nM | reduction of cytotoxic activity as compared to Compound 40 ([1]; thiol containing tail): less than 1 log; IC50 [3]: 0.00285 µg/mL and 3.8 nM; IC50 [4]: 0.0023 µg/mL and 3.06 nM; decrease of cytotoxic activity as compared to Compound 4 ([5]; thiol containing tail): about 5 fold; IC50 [7]: 0.0103 µg/mL and 13.7 nM |
| COC1=CC[C@@H]([C@@H](C)/C=C(C)/C=C\C=C/C(=O)N[C@H](C(=O)N/C=C\C[C@H](C/C=C(\C)Cl)OC(=O)NCCCNC(=O)OCc2ccc(NC(=O)[C@H](CCCNC(N)=O)NC(=O)[C@@H](NC(=O)CCCCCN3C(=O)C=CC3=O)C(C)C)cc2)C(C)(C)C)OC1=O [Compound 12] | 0.0044 µg/mL to 0.048 µg/mL and 3.5 nM to 38 nM | 0.02 µg/mL and 16 nM | 0.00905 µg/mL and 7.18 nM | 0.0076 µg/mL to 0.0305 µg/mL and 6.02 nM to 24.2 nM | 0.0163 µg/mL and 12.9 nM | 0.00445 µg/mL and 3.53 nM | 0.018 µg/mL and 14.3 nM | 0.0305 µg/mL and 24.2 nM | 0.0076 µg/mL and 6.02 nM | IC20 ([11]; C#10 (high CD5)): 0.15 µg/mL and 119 nM; IC50 ([11]; C#10 (high CD5)): 0.27 µg/mL and 214 nM; IC50 ([11]; clone #10, CD5 expressing): 215 nM; decrease of cytotoxic activity as compared to Compound 4 ([1]; long linker): ~1 log; IC50 [12, 15]: 0.073 µg/mL to 0.41 µg/mL and 58 nM to 320 nM; IC50 [12, 16]: 0.17 µg/mL and 130 nM; reduction of cytotoxic activity as compared to Compound 4 [12, 19]: ~2 log; reduction of cytotoxic activity as compared to Compound 40 [12, 19]: ~3 log; IC50 [13, 15]: 0.022 µg/mL to 0.067 µg/mL and 18 nM to 55 nM; IC50 [13, 16]: 0.039 µg/mL and 31 nM; IC20 [14]: 0.2 µg/mL and 159 nM; IC50 [14]: > 792 nM and > 1 µg/mL |
